{"source": "patent US7745483B2", "about": "“2-Halofuryl-thienyl-3-carboxamides” (Bayer CropScience AG, priority 2004, dated 2010)"}
{"system": "Puccinia recondita", "assay": "Puccinia test (wheat)/protective", "assay_type": "in vivo", "conditions": "240 h, protective, application rate 500 g/ha, evaluation 10 days after inoculation, read-out: Efficacy in %", "procedure": "[table] To produce a suitable preparation of active compound, 1 part by weight of active compound is mixed with the stated amounts of solvent and emulsifier, and the concentrate is diluted with water to the desired concentration. To test for protective activity, young plants are sprayed with the preparation of active compound at the stated application rate. After the spray coating has dried on, the plants are sprayed with a conidia suspension Puccinia recondita. The plants remain in an incubation cabin at 20° C. and 100% relative atmospheric humidity for 48 hours. The plants are then placed in a greenhouse at a temperature of about 20° C. and a relative atmospheric humidity of 80% to promote the development of rust pustules. Evaluation is carried out 10 days after the inoculation. 0% means an efficacy which corresponds to that of the control, whereas an efficacy of 100% means that no infection is observed.", "units": {"pest or weed control at 500 g/ha": "%"}}
{"molecule": "CC1CC(C)(C)c2cccc(NC(=O)c3ccsc3I)c21", "note": "(centres unmarked) [drawing 278]", "pest or weed control at 500 g/ha": 100}
{"molecule": "O=C(Nc1ccccc1-c1ccc(Cl)c(Cl)c1)c1ccsc1I", "note": "[drawing 271]", "pest or weed control at 500 g/ha": 100}
{"molecule": "CC(C[Si](C)(C)C)c1ccccc1NC(=O)c1ccoc1I", "note": "(centres unmarked) [drawing 275]", "pest or weed control at 500 g/ha": 100}
{"molecule": "O=C(Nc1ccccc1-c1ccc(Cl)c(Cl)c1)c1ccsc1Br", "note": "[drawing 284]", "pest or weed control at 500 g/ha": 100}
{"molecule": "CC(CC(C)(C)C)c1ccccc1NC(=O)c1ccsc1I", "note": "(centres unmarked) [drawing 272]", "pest or weed control at 500 g/ha": 100}
{"molecule": "CC(C)CC(C)c1ccccc1NC(=O)c1ccoc1I", "note": "(centres unmarked) [drawing 261]", "pest or weed control at 500 g/ha": 100}
{"molecule": "O=C(Nc1ccccc1-c1ccc(Br)c(Cl)c1)c1ccsc1I", "note": "[drawing 265]", "pest or weed control at 500 g/ha": 100}
{"molecule": "O=C(Nc1ccccc1-c1ccc(Cl)c(F)c1)c1ccsc1I", "note": "[drawing 274]", "pest or weed control at 500 g/ha": 94}
{"molecule": "CC(C)(C)CCc1cc(F)ccc1NC(=O)c1ccsc1I", "note": "[drawing 266]", "pest or weed control at 500 g/ha": 100}
{"molecule": "O=C(Nc1ccccc1-c1ccc(Br)c(F)c1)c1ccsc1I", "note": "[drawing 264]", "pest or weed control at 500 g/ha": 100}
{"molecule": "C[Si](C)(C)CCc1ccccc1NC(=O)c1ccsc1I", "note": "[drawing 262]", "pest or weed control at 500 g/ha": 97}
{"molecule": "CC(C[Si](C)(C)C)c1ccccc1NC(=O)c1ccsc1I", "note": "(centres unmarked) [drawing 276]", "pest or weed control at 500 g/ha": 100}
{"molecule": "O=C(Nc1ccccc1-c1ccc(Cl)c(F)c1)c1ccsc1Br", "note": "[drawing 285]", "pest or weed control at 500 g/ha": 100}
{"molecule": "O=C(Nc1ccccc1-c1ccc(Cl)cc1)c1ccoc1I", "note": "[drawing 267]", "pest or weed control at 500 g/ha": 100}
{"molecule": "CC(CC(C)(C)C)c1ccccc1NC(=O)c1ccsc1Br", "note": "(centres unmarked) [drawing 283]", "pest or weed control at 500 g/ha": 100}
{"molecule": "C=C(CC(C)(C)C)c1ccccc1NC(=O)c1ccsc1I", "note": "[drawing 273]", "pest or weed control at 500 g/ha": 93}
{"molecule": "CC(C)CC(C)c1sccc1NC(=O)c1ccsc1I", "note": "(centres unmarked) [drawing 281]", "pest or weed control at 500 g/ha": 100}
{"molecule": "CC(C)CC(C)c1cc(F)ccc1NC(=O)c1ccsc1I", "note": "(centres unmarked) [drawing 279]", "pest or weed control at 500 g/ha": 100}
{"molecule": "O=C(Nc1ccccc1-c1ccc(Cl)c(F)c1)c1ccoc1I", "note": "[drawing 270]", "pest or weed control at 500 g/ha": 100}
{"molecule": "CC(CC(C)(C)C)c1ccccc1NC(=O)c1ccoc1I", "note": "(centres unmarked) [drawing 269]", "pest or weed control at 500 g/ha": 100}
{"molecule": "CC(C)(C)CCc1ccccc1NC(=O)c1ccsc1I", "note": "[drawing 263]", "pest or weed control at 500 g/ha": 97}
{"molecule": "O=C(Nc1ccccc1-c1ccc(F)c(Cl)c1)c1ccsc1I", "note": "[drawing 286]", "pest or weed control at 500 g/ha": 100}
{"molecule": "CC(C[Si](C)(C)C)c1cc(F)ccc1NC(=O)c1ccsc1I", "note": "(centres unmarked) [drawing 287]", "pest or weed control at 500 g/ha": 100}
{"system": "Alternaria solani", "assay": "Alternaria test (tomato)/protective", "assay_type": "in vivo", "conditions": "protective, application rate 750 g/ha, evaluation 7 days after inoculation", "procedure": "[table] To produce a suitable preparation of active compound, 1 part by weight of active compound is mixed with the stated amounts of solvent and emulsifier, and the concentrate is diluted with water to the desired concentration. To test for protective activity, young tomato plants are sprayed with the preparation of active compound at the stated application rate. One day after the treatment, the plants are inoculated with a spore suspension of Alternaria solani and then remain at 100% relative humidity and at 20° C. for 24 hours. The plants then remain at 96% relative atmospheric humidity and a temperature of 20° C. Evaluation is carried out 7 days after the inoculation. 0% means an efficacy which corresponds to that of the control, whereas an efficacy of 100% means that no infection is observed.", "units": {"Efficacy in %": "%"}}
{"molecule": "CC(C)(C)CCc1ccccc1NC(=O)c1ccsc1I", "note": "[drawing 288]", "Efficacy in %": 94}
{"molecule": "CC(C)CC(C)c1ccccc1NC(=O)c1ccsc1I", "note": "(centres unmarked) [drawing 289]", "Efficacy in %": 100}
{"molecule": "CC(C)CC(C)c1ccccc1NC(=O)c1ccoc1I", "note": "(centres unmarked) [drawing 290]", "Efficacy in %": 94}
